Earlier results as cited in patent publication US7431914B2, “Contrast agent” (GE Healthcare AS, priority 2003, dated 2008).

Conditions: both the drug and the chelate conjugate

CCCCc1nc(Cl)c(CO)n1Cc1ccc(-c2ccccc2-c2nn[nH]n2)cc1 [Losartan]
excrete through the liver: more than 80%
